Assays:
Experiment in all cases: relative viability (nuclei count vs DMSO), 5 days (fraction); higher = more cells survive
[1] = compound: CC(C)(C)c1nc(-c2cccc(NS(=O)(=O)c3c(F)cccc3F)c2F)c(-c2ccnc(N)n2)s1 [Dabrafenib] + Nc1ncn([C@H]2C[C@H](O)[C@@H](CO)O2)c(=O)n1 [Decitabine] (partner 2 µM)
Outline: (§1)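 Lung cancer cell lines were pin-tool dosed in 1536-well plates on the day after seeding, with either a lone drug or a fixed anchor-drug dose plus five library-drug doses (not always all listed) in √10 steps. Nuclei were counted on 4× images after 5 days. Relative viability is the ratio of treated-well to vehicle-well nuclei counts, with each value a median of duplicate plates.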

[2] = compound: NC(=O)c1ccc(N(C(N)=O)c2c(F)cccc2F)nc1-c1ccc(F)cc1F [VX-702] + O=C(c1cc(Cc2n[nH]c(=O)c3ccccc23)ccc1F)N1CCN(C(=O)C2CC2)CC1 [Olaparib] (partner 8 µM)
Outline: as §1

[3] = compound: NC(=O)c1ccc(N(C(N)=O)c2c(F)cccc2F)nc1-c1ccc(F)cc1F [VX-702] + NC(=O)Nc1cc(-c2cccc(F)c2)sc1C(=O)N[C@H]1CCCNC1 [AZD7762] (partner 0.2 µM)
Outline: as §1

[4] = compound: CC(C)(C)c1nc(-c2cccc(NS(=O)(=O)c3c(F)cccc3F)c2F)c(-c2ccnc(N)n2)s1 [Dabrafenib] + CC(=O)c1c(C)c2cnc(Nc3ccc(N4CCNCC4)cn3)nc2n(C2CCCC2)c1=O [Palbociclib] (partner 0.5 µM)
Outline: as §1

[5] = compound: NC(=O)c1ccc(N(C(N)=O)c2c(F)cccc2F)nc1-c1ccc(F)cc1F [VX-702] + O=C(CCCCCCC(=O)Nc1ccccc1)NO [Vorinostat] (partner 1 µM)
Outline: as §1

With SW 900 the relative viability ([1]; first compound 0.009487 µM) was 0.35, the relative viability ([1]; first compound 0.09487 µM) was 0.486 and the relative viability ([1]; first compound 0.3 µM) was 0.394. It also gave a relative viability ([2]; first compound 0.02 µM) of 0.772, a relative viability ([2]; first compound 0.2 µM) of 0.878 and a relative viability ([2]; first compound 0.6325 µM) of 0.887. It also gave a relative viability ([2]; first compound 2 µM) of 0.893, a relative viability ([3]; first compound 0.02 µM) of 0.611 and a relative viability ([3]; first compound 0.2 µM) of 0.502. It also gave a relative viability ([3]; first compound 0.6325 µM) of 0.492, a relative viability ([3]; first compound 2 µM) of 0.572 and a relative viability ([4]; first compound 0.009487 µM) of 0.532. For the same cell line, the relative viability ([4]; first compound 0.09487 µM) was 0.523, the relative viability ([4]; first compound 0.3 µM) was 0.58 and the relative viability ([5]; first compound 0.02 µM) was 0.492. It also gave a relative viability ([5]; first compound 0.2 µM) of 0.444, a relative viability ([5]; first compound 0.6325 µM) of 0.558 and a relative viability ([5]; first compound 2 µM) of 0.516.

Source: the supplement of paper PMC10307832
